# Experimental data: the supplement of paper PMC11208160
# Experiment: recombinant UMI read abundance after kanamycin selection (control-corrected) (log10(CPM+1)); higher = more efficient recombination; extreme values may be limits of the assay; sequences stand for … in AGTGCAGAGAAAATCGGCCAGTTTTCTCTGCCTGCAGTCCGCATGCCGTGGGACCCCTTGGGTTCTAACCTGTTGCCTAGATTTATGCAGCGGACTGCCTTTCTCCCAAAGTGATAAACCGG…AGGTTGGTTTCACT; site = the 11-nt donor
# Procedure, shortened: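 Sequenced counts of recombinant UMIs were turned into CPM, averaged across replicates and scaled with control-derived factors. The reported figure is log10(CPM+1). Those UMIs, each 12 nt long, tagged donor and donor-binding-loop pairs on a plasmid with a promoterless kanamycin gene, screened as a pool in Escherichia coli with IPTG (0.07 mM) plus kanamycin or without selection.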
# 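Note: IS621 bridge recombinase in Escherichia coli cells against a fixed T5 target plasmid.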
row,Sequence,recombinant UMI read abundance (log10)
1,GACCACCCATGGACCGGTTTTCCCGGTAATCCGTATTTGTT (site GACCACCCTAA),0.0158
2,GACCACCCATGGACCGGTTTTCCCGGTAATCCGTATTTGTT (site GCCCACCCTAA),0.0164
3,GACCACCCATGGACCGGTTTTCCCGGTAATCCGTATTTGTT (site GGCCACCCTAA),0.00672
4,GACCACCCATGGACCGGTTTTCCCGGTAATCCGTATTTGTT (site GTCCACCCTAA),0.0482
5,GACCCATCATGGACCGGTTTTCCCGGTAATCCGTATTTGCC (site GACCCATCTGG),1.64
6,GACCCGACATGGACCGGTTTTCCCGGTAATCCGTATTTGGT (site GACCCGACTAC),0.319
7,GACCCTACATGGACCGGTTTTCCCGGTAATCCGTATTTGAA (site GACCCTACTTT),0.324
8,GACCGACCATGGACCGGTTTTCCCGGTAATCCGTATTTGCG (site GACCGACCTCG),0.00858
9,GACCGTCCATGGACCGGTTTTCCCGGTAATCCGTATTTGAC (site GACCGTCCTGT),0
10,GACCTATCATGGACCGGTTTTCCCGGTAATCCGTATTTGGA (site GACCTATCTTC),0.981
11,GACCTTCCATGGACCGGTTTTCCCGGTAATCCGTATTTGGT (site GACCTTCCTAC),0.0209
12,GACGCCGCATGGACCGGTTTTCCCGGTAATCCGTATTTGGT (site GACGCCGCTAC),0.736
13,GACGTAACATGGACCGGTTTTCCCGGTAATCCGTATTTGGC (site GACGTAACTGC),1.72
14,GACTAGCCATGGACCGGTTTTCCCGGTAATCCGTATTTGAA (site GACTAGCCTTT),0.0158
15,GACTCATCATGGACCGGTTTTCCCGGTAATCCGTATTTGCC (site GACTCATCTGG),2.65
16,GACTTGGCATGGACCGGTTTTCCCGGTAATCCGTATTTGAA (site GACTTGGCTTT),0.93
17,GAGAAGCCATGGACCGGTTTTCCCGGTAATCCGTATTTGGG (site GAGAAGCCTCC),0.0155
18,GAGAAGCCATGGACCGGTTTTCCCGGTAATCCGTATTTGGG (site GCGAAGCCTCC),0.0122
19,GAGAAGCCATGGACCGGTTTTCCCGGTAATCCGTATTTGGG (site GGGAAGCCTCC),0
20,GAGAAGCCATGGACCGGTTTTCCCGGTAATCCGTATTTGGG (site GTGAAGCCTCC),0.0251
21,GAGAATCCATGGACCGGTTTTCCCGGTAATCCGTATTTGTT (site CGGAATCCTAA),0
22,GAGAATCCATGGACCGGTTTTCCCGGTAATCCGTATTTGTT (site GAGAATCCTAA),0
23,GAGACGTCATGGACCGGTTTTCCCGGTAATCCGTATTTGCC (site GAGACGTCTGG),2.04
24,GAGCACGCATGGACCGGTTTTCCCGGTAATCCGTATTTGGG (site AAGCACGCTCC),0.0191
25,GAGCACGCATGGACCGGTTTTCCCGGTAATCCGTATTTGGG (site CAGCACGCTCC),0.0292
26,GAGCACGCATGGACCGGTTTTCCCGGTAATCCGTATTTGGG (site GAGCACGCTCC),0.468
27,GAGCACGCATGGACCGGTTTTCCCGGTAATCCGTATTTGGG (site TAGCACGCTCC),0.517
28,GAGCACTCATGGACCGGTTTTCCCGGTAATCCGTATTTGCG (site GAGCACTCTCG),3.08
29,GAGCCCACATGGACCGGTTTTCCCGGTAATCCGTATTTGAA (site GAGCCCACTTT),1.73
